# Source: PMC7413254 (Nature Communications, 2020)
# Like-named read-outs stand apart in the source and are kept apart here.
# Legend:
# non-expressing oocytes [1] = test: cells; assay type: cell-based, Xenopus laevis; conditions: Xenopus laevis, total [3H]CQ transport; for inhibition at 500 µM: [test solute] = 0.5 mM; for inhibition at 1000 µM: [test solute] = 1 mM; for inhibition at 2000 µM: [test solute] = 2 mM
# Method in brief: (§1)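 Inward transport into oocyte cytosol from pH 5.5 medium models PfCRT efflux from the acidic digestive vacuole. Incubation 1.5 h, 27.5 °C; termination by ice-cold washes; lysate radioactivity counted.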
# PfCRT^3D7 [2] = target: T1, PfCRT^3D7 (Plasmodium falciparum, UniProt Q8IBZ9); test: cell-based; assay type: cell-based; conditions: total [3H]CQ transport; for inhibition at 500 µM: [test solute] = 0.5 mM; for inhibition at 1000 µM: [test solute] = 1 mM; for inhibition at 2000 µM: [test solute] = 2 mM
# Method in brief: as §1
# PfCRT^Dd2 [3] = target: T2, PfCRT^Dd2 (Plasmodium falciparum, UniProt Q9N623, A220S/I356T/K76T/M74I/N326S/N75E/Q271E/R371I); test: [3H]CQ uptake into Xenopus oocytes, cis-inhibition by unlabelled solute; assay type: cell-based
# Method in brief: as §1
# PfCRT^Ecu1110 [4] = target: T3, PfCRT^Ecu1110 (Plasmodium falciparum, UniProt Q9N623, A220S/I356L/K76T/N326D); test: as above; assay type: cell-based
# Method in brief: as §1
# non-expressing oocytes [5] = assay type: cell-based, Xenopus laevis; conditions: total [3H]CQ transport; for Uptake of [3H]CQ (% non-expressing oocyte control), trans-stimulation: non-expressing oocytes, normalised to the oocyte type control; for Uptake of [3H]CQ (% PfCRTDd2 control), trans-stimulation, non-expressing oocytes: mean ± SEM, SEM
# Method in brief: (§2)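 Oocytes (ten per treatment, ≥4 independent frogs/days) were preloaded by injecting VF-6 in 25 nL ND96 at pH 5.0, 5.5, 6.0 or 7.0, or Na^+-free choline buffer, then uptake run 1.5 h, 27.5 °C, ND96 pH 5.5 by default. Internal concentrations assumed ~400 nL oocyte volume.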
# PfCRT^3D7 [6] = target: T1, PfCRT^3D7; test: cell-based; assay type: cell-based
# Method in brief: as §2
# PfCRT^Dd2 [7] = target: T2, PfCRT^Dd2; test: cell-based; assay type: cell-based; conditions: […]; for activity at 45000 µM: [test solute]i = 45 mM (30 mM for some solutes due to solubility)
# Method in brief: as §2
# PfCRT^Ecu1110 [8] = target: T3, PfCRT^Ecu1110; test: cell-based; assay type: cell-based; conditions: […]
# Method in brief: as §2
# PfNT1 = target: T4, PfNT1 (Plasmodium falciparum, UniProt Q8IDM6); test: cell-based; assay type: cell-based; conditions: for activity at 5000 µM: total [3H]CQ transport
# T4 construct: expressed in transfected cells; host or cells: Xenopus laevis oocytes (stage V-VI), cRNA-injected
# Method in brief: as §2
# PfCRT [9] = test: Influx of VF-6 via PfCRT into the oocyte, solutes tested as potential co-substrates; assay type: cell-based, Plasmodium falciparum; set-up: key: X: Compounds that have been tested as potential co-substrates but are not required for influx of VF-6 via PfCRT into the oocyte; conditions: X marks the solute
# PfCRT [10] = test: Potential co-substrates tested for influx of VF-6 via PfCRT into the oocyte; assay type: cell-based, Plasmodium falciparum; set-up: key: X: Compounds that have been tested as potential co-substrates but are not required for influx of VF-6 via PfCRT into the oocyte
# [11] = Oocyte, mean ± SEM, SEM, read-out: Uptake of [3H]CQ (% PfCRTDd2 control), cis-inhibition, non-expressing oocytes
# [12] = non-expressing oocytes, normalised to the oocyte type control, read-out: Uptake of [3H]CQ (% non-expressing oocyte control), cis-inhibition
# [13] = PfCRT3D7 oocytes, normalised to the oocyte type control, read-out: Uptake of [3H]CQ (% PfCRT3D7 control), cis-inhibition
# [14] = mean ± SEM, SEM, read-out: Uptake of [3H]CQ (% PfCRTDd2 control), cis-inhibition, PfCRT3D7
# [15] = read-out: PfCRT-mediated [3H]CQ transport, cis-inhibition (% PfCRTDd2 control)
# [16] = read-out: Uptake of [3H]CQ (% PfCRTDd2 control), cis-inhibition, PfCRTDd2, SEM
# [17] = read-out: PfCRT-mediated [3H]CQ transport, cis-inhibition (% PfCRTEcu1110 control)
# [18] = read-out: Uptake of [3H]CQ (% PfCRTDd2 control), cis-inhibition, PfCRTEcu1110, SEM
# [19] = read-out: Uptake of [3H]CQ (% PfCRTEcu1110 control), cis-inhibition
# [20] = read-out: [3H]CQ transport (% PfCRTEcu1110 control), cis-inhibition, PfCRTEcu1110, SEM
# T3 sequence (Q9N623 whole entry A220S/I356L/K76T/N326D): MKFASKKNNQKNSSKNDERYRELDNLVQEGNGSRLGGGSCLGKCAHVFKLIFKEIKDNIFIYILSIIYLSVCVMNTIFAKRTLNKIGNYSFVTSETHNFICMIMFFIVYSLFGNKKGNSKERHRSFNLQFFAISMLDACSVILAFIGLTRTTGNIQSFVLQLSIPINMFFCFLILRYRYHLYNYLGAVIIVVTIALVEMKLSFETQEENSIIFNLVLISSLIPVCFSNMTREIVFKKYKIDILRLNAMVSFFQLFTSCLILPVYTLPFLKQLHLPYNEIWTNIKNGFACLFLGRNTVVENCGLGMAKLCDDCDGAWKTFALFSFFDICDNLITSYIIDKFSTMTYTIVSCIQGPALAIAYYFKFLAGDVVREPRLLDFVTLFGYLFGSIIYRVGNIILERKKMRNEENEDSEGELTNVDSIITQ
# T2 sequence (Q9N623 whole entry A220S/I356T/K76T/M74I/N326S/N75E/Q271E/R371I): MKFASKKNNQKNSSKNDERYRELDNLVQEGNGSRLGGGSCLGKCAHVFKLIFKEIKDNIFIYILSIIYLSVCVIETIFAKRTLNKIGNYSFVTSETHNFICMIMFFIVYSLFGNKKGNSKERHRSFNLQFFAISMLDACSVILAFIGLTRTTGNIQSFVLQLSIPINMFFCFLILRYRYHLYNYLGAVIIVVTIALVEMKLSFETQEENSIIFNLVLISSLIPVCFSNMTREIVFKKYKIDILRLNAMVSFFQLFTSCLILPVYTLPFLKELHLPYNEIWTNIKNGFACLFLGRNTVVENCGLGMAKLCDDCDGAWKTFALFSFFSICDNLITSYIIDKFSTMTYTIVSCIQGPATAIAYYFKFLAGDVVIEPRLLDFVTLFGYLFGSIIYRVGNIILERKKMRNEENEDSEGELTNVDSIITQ
# T1 sequence (Q8IBZ9 59-398): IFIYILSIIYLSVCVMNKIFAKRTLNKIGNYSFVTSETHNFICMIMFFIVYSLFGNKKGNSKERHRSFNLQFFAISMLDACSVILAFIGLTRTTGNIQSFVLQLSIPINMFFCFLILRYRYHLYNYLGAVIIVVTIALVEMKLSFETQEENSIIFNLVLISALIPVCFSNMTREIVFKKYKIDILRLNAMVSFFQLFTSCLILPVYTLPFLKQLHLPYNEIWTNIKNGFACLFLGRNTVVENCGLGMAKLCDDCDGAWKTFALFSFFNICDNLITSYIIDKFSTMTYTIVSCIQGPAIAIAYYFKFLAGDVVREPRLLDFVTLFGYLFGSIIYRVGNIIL
# T4 sequence (Q8IDM6 whole entry): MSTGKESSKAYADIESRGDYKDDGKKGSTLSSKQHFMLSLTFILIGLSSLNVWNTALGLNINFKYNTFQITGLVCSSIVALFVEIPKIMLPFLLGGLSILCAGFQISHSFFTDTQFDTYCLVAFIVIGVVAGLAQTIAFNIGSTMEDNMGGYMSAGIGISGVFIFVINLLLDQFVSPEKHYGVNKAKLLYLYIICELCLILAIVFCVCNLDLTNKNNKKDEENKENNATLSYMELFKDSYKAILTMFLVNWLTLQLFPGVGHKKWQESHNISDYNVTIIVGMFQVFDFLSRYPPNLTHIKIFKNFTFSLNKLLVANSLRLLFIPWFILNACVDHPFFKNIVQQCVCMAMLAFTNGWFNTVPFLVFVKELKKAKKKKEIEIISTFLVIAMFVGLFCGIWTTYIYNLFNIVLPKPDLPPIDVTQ
structure (smiles),measurement,setting,value
C[C@H](N)C(=O)O [L-alanine],inhibition at 500 µM,non-expressing oocytes [1]; [11],3.5 ± 0.08%
same,inhibition at 1000 µM,non-expressing oocytes [1]; [11],3.7 ± 0.08%
same,inhibition at 2000 µM,non-expressing oocytes [1]; [11],2.2 ± 0.06%
same,inhibition at 500 µM,non-expressing oocytes [1]; [12],99 ± 5.3%
same,inhibition at 1000 µM,non-expressing oocytes [1]; [12],100 ± 3.5%
same,inhibition at 2000 µM,non-expressing oocytes [1]; [12],99 ± 1.4%
same,inhibition at 500 µM,PfCRT^3D7 [2]; [13],99 ± 3.2%
same,inhibition at 1000 µM,PfCRT^3D7 [2]; [13],100 ± 3.6%
same,inhibition at 2000 µM,PfCRT^3D7 [2]; [13],99 ± 4.6%
same,inhibition at 500 µM,PfCRT^3D7 [2]; [14],4.2 ± 0.03%
same,inhibition at 1000 µM,PfCRT^3D7 [2]; [14],3.1 ± 0.07%
same,inhibition at 2000 µM,PfCRT^3D7 [2]; [14],3.2 ± 0.08%
same,inhibition at 500 µM,PfCRT^Dd2 [3]; [15],95 ± 2.1%
same,inhibition at 1000 µM,PfCRT^Dd2 [3]; [15],94 ± 3.8%
same,inhibition at 500 µM,PfCRT^Dd2 [3]; [16],97 ± 4.6%
same,inhibition at 1000 µM,PfCRT^Dd2 [3]; [16],96 ± 3.3%
same,inhibition at 2000 µM,PfCRT^Dd2 [3]; [16],98 ± 3.1%
same,inhibition at 500 µM,PfCRT^Ecu1110 [4]; [17],93 ± 1.3%
same,inhibition at 1000 µM,PfCRT^Ecu1110 [4]; [17],95 ± 1.7%
same,inhibition at 500 µM,PfCRT^Ecu1110 [4]; [18],31 ± 2.5%
same,inhibition at 1000 µM,PfCRT^Ecu1110 [4]; [18],32 ± 2.1%
same,inhibition at 2000 µM,PfCRT^Ecu1110 [4]; [18],32 ± 0.9%
same,inhibition at 500 µM,PfCRT^Ecu1110 [4]; [19],96 ± 2.5%
same,inhibition at 1000 µM,PfCRT^Ecu1110 [4]; [19],97 ± 2.5%
same,inhibition at 2000 µM,PfCRT^Ecu1110 [4]; [19],98 ± 4.1%
same,inhibition at 500 µM,PfCRT^Ecu1110 [4]; [20],28 ± 0.6%
same,inhibition at 1000 µM,PfCRT^Ecu1110 [4]; [20],29 ± 1.1%
same,inhibition at 2000 µM,PfCRT^Ecu1110 [4]; [20],29 ± 1.5%
same,"Uptake of [3H]CQ (% non-expressing oocyte control), trans-stimulation",non-expressing oocytes [5]; [test solute]i = 5 mM,99 ± 3.2 % non-expressing oocyte control
same,"Uptake of [3H]CQ (% non-expressing oocyte control), trans-stimulation",non-expressing oocytes [5]; [test solute]i = 45 mM (30 mM for some solutes due to solubility),99 ± 2.2 % non-expressing oocyte control
same,"Uptake of [3H]CQ (% PfCRTDd2 control), trans-stimulation, non-expressing oocytes",non-expressing oocytes [5]; [test solute]i = 5 mM (intracellular),3.1 ± 0.03 % PfCRTDd2 control
same,"Uptake of [3H]CQ (% PfCRTDd2 control), trans-stimulation, non-expressing oocytes",non-expressing oocytes [5]; [test solute]i = 45 mM (intracellular; 30 mM for some solutes due to solubility),3.3 ± 0.08 % PfCRTDd2 control
same,activity at 5000 µM,"PfCRT^3D7 [6]; PfCRT3D7 oocytes, [test solute]i = 5 mM, total [3H]CQ transport, normalised to the oocyte type control, read-out: Uptake of [3H]CQ (% PfCRT3D7 control), trans-stimulation",99 ± 3.6%
same,"[3H]CQ transport (% PfCRT3D7 control), trans-stimulation, PfCRT3D7",PfCRT^3D7 [6]; SEM,0.3 ± 0.01 % PfCRT3D7 control
same,activity at 5000 µM,"PfCRT^3D7 [6]; [test solute]i = 5 mM (intracellular), PfCRT3D7 oocytes, normalised to oocyte type control, read-out: PfCRT-mediated [3H]CQ transport, trans-stimulation (% PfCRT3D7 control)",97 ± 2.1%
same,activity at 45000 µM,"PfCRT^3D7 [6]; SEM, read-out: Uptake of [3H]CQ (% PfCRTDd2 control), trans-stimulation, PfCRT3D7",3.3 ± 0.05%
same,activity at 45000 µM,"PfCRT^3D7 [6]; read-out: PfCRT-mediated [3H]CQ transport, trans-stimulation (% PfCRT3D7 control)",97 ± 2.3%
same,activity at 45000 µM,"PfCRT^3D7 [6]; read-out: Uptake of [3H]CQ (% PfCRT3D7 control), trans-stimulation",99 ± 3.2%
same,activity at 5000 µM,"PfCRT^3D7 [6]; total [3H]CQ transport, [test solute]i = 5 mM (intracellular), mean ± SEM, SEM, read-out: Uptake of [3H]CQ (% PfCRTDd2 control), trans-stimulation, PfCRT3D7",3.3 ± 0.05%
same,activity at 5000 µM,"PfCRT^Dd2 [7]; pH 5.5, read-out: PfCRT-mediated [3H]CQ transport, trans-stimulation (% PfCRTDd2 control), [test solute]i = 5 mM (intracellular), PfCRTDd2 oocytes, normalised to oocyte type control",95 ± 1.9%
same,activity at 5000 µM,"PfCRT^Dd2 [7]; pH 5.5, read-out: Uptake of [3H]CQ (% PfCRTDd2 control), trans-stimulation, PfCRTDd2, total [3H]CQ transport, [test solute]i = 5 mM (intracellular), mean ± SEM, SEM",97 ± 3.3%
same,activity at 5000 µM,"PfCRT^Dd2 [7]; pH 5.5, read-out: Uptake of [3H]CQ (% PfCRTDd2 control), trans-stimulation, PfCRTDd2 oocytes, [test solute]i = 5 mM, total [3H]CQ transport, normalised to the oocyte type control",97 ± 3.3%
same,activity at 45000 µM,"PfCRT^Dd2 [7]; pH 5.5, read-out: Uptake of [3H]CQ (% PfCRTDd2 control), trans-stimulation, PfCRTDd2 oocytes, total [3H]CQ transport, normalised to the oocyte type control",98 ± 1.9%
same,activity at 5000 µM,"PfCRT^Dd2 [7]; pH 5.5, read-out: [3H]CQ transport (% PfCRTDd2 control), trans-stimulation, PfCRTDd2, trans-stimulation, [test solute]i = 5 mM (injected), PfCRT-mediated component (background subtracted), mean ± SEM, SEM",95 ± 1.9%
same,activity at 45000 µM,"PfCRT^Dd2 [7]; pH 5.5, read-out: [3H]CQ transport (% PfCRTDd2 control), trans-stimulation, PfCRTDd2, trans-stimulation, PfCRT-mediated component (background subtracted), mean ± SEM, SEM",96 ± 3.2%
same,activity at 5000 µM,"PfCRT^Ecu1110 [8]; pH 5.5, read-out: PfCRT-mediated [3H]CQ transport, trans-stimulation (% PfCRTEcu1110 control), [test solute]i = 5 mM (intracellular), PfCRTEcu1110 oocytes, normalised to oocyte type control",97 ± 1.4%
same,activity at 5000 µM,"PfCRT^Ecu1110 [8]; pH 5.5, read-out: Uptake of [3H]CQ (% PfCRTEcu1110 control), trans-stimulation, PfCRTEcu1110 oocytes, [test solute]i = 5 mM, total [3H]CQ transport, normalised to the oocyte type control",99 ± 3.2%
same,activity at 45000 µM,"PfCRT^Ecu1110 [8]; pH 5.5, read-out: Uptake of [3H]CQ (% PfCRTEcu1110 control), trans-stimulation, PfCRTEcu1110 oocytes, [test solute]i = 45 mM (30 mM for some solutes due to solubility), total [3H]CQ transport, normalised to the oocyte type control",101 ± 2.1%
same,activity at 5000 µM,"PfCRT^Ecu1110 [8]; read-out: Uptake of [3H]CQ (% PfCRTDd2 control), trans-stimulation, PfCRTEcu1110, total [3H]CQ transport, [test solute]i = 5 mM (intracellular), mean ± SEM, SEM",35 ± 2.6%
same,activity at 45000 µM,"PfCRT^Ecu1110 [8]; read-out: Uptake of [3H]CQ (% PfCRTDd2 control), trans-stimulation, PfCRTEcu1110, total [3H]CQ transport, [test solute]i = 45 mM (intracellular; 30 mM for some solutes due to solubility), mean ± SEM, SEM",36 ± 1.5%
same,activity at 5000 µM,"PfNT1; PfNT1 oocytes, [test solute]i = 5 mM, normalised to the oocyte type control, read-out: Uptake of [3H]CQ (% PfNT1 control), trans-stimulation",99 ± 3.1%
same,activity at 45000 µM,"PfNT1; SEM, read-out: Uptake of [3H]CQ (% PfCRTDd2 control), trans-stimulation, PfNT1",3.2 ± 0.02%
same,activity at 45000 µM,"PfNT1; read-out: Uptake of [3H]CQ (% PfNT1 control), trans-stimulation",99 ± 3.6%
same,activity at 5000 µM,"PfNT1; [test solute]i = 5 mM (intracellular), mean ± SEM, SEM, read-out: Uptake of [3H]CQ (% PfCRTDd2 control), trans-stimulation, PfNT1",2.2 ± 0.03%
same,Compounds that have been tested as potential co-substrates but are not required for influx of VF-6 via PfCRT into the oocyte,PfCRT [9],X
same,Tested as potential co-substrate but not required for influx of VF-6 via PfCRT into the oocyte,PfCRT [10],X
